Ends that are not written are not given here.
How the values were obtained:
[1] = biological target: KISS1 receptor (KISS1R or GPR54); details: affinity for KISS1R; ref [1],[2]; cited from earlier work
Protocol: Kisspeptins (KPs) summarize the family of KISS1 peptides, which bind at the KISS1 receptor (KISS1R or GPR54) with high affinity. Among the KPs, KISS1-54 is the best characterized representative (Ki 1.45 ± 0.1 nM for KISS1-54). The Kiss1 gene was first identified as a metastasis suppressor gene in melanoma, which suppresses metastasis without affecting the formation of primary tumor [3]. Since then, Kisspeptin was also identified in pancreatic, lung, breast, ovarian, gastric, colon, bladder, esophageal, and small intestine cancer.

KISS1R in HCT116 cells = assay: KISS1R expression by immunofluorescence after Decitabine pre-incubation; type: cell-based, human; details: HCT116 pre-incubated 72 h with 5 µM Decitabine versus untreated
Protocol: Cells were seeded in 24-well plates on microscope cover glasses (VWR, Ismaning, Germany). After fixation/permeabilization, cells were incubated overnight with anti-KISS1R antibody (abcam, Berlin, Germany) or without primary antibody (negative control) and then stained with Alexa-Fluor®-488 conjugated secondary antibody (abcam, Berlin, Germany). The nucleus was counterstained with 4′,6-Diamidin-2-phenylindol (DAPI) (Sigma-Aldrich, Deisenhofen, Germany). Fluorescence images were taken on an Axio Scope.A1 fluorescence microscope equipped with a camera and the ZEN2 (blue edition)-Software, version 2.0.0.0 (Zeiss, Jena, Germany). Fluorescence canals were merged using the software FIJI (Image J, version 1.53t).
Cells were seeded in 24-well plates, and 1 h before [^68Ga]KISS1-54 uptake, the cell culture medium was replaced by PBS/5% BSA. Cells were incubated at 37 °C with [^68Ga]KISS1-54 for 5–90 min or co-incubated for 60 min with [^68Ga]KISS1-54 and KISS1-54 (Sigma Aldrich, Deisenhofen, Germany). After incubation, cells were washed three times with ice-cold PBS/5% BSA and harvested. Radioactivity was measured with a gamma-counter (Wizard 2480, Perkin-Elmer, Rodgau, Germany), and cells were subsequently counted with Countess 3 (Thermo Fisher Scientific, Waltham, MA, USA). […]

[2] = Stability in injection solution by radio-HPLC; type: physicochemical; details: 3 h after preparation (EOS), diluted in PBS, room temperature, C18
Protocol: The radiochemical purity of [^68Ga]KISS1-54 was determined via high-performance liquid chromatography (HPLC). A linear gradient started from 100% H2O (0.1% TFA) to 100% acetonitrile (0.1% TFA) over 10 min, with a flow rate of 0.7 mL/min, using a Nucleosil column (100-5 C18 125 × 4.6 mm) (CS-Chromatographie, Langerwehe, Germany) and HPLC system (Knauer, Berlin, Germany). For the determination of the in vitro stability, the [^68Ga]KISS1-54 solution was diluted in phosphate-buffered saline (PBS) and stored at room temperature, and the HPLC runs were repeated 1 h and 3 h after the end of synthesis.

[3] = type: in vitro ADME, human
Protocol: For the determination of the […] stability, [^68Ga]KISS1-54 was incubated in fresh human serum at 37 °C for 3 h. After 0.5 h, 1 h, 2 h, and 3 h, adequate samples were taken, purified, and analyzed via HPLC under the conditions described above. […] The measured radioactivity (counts per minute) for each fraction was plotted versus time in a graph.

LNCap cells = assay: In vitro cell uptake, LNCap; type: cell-based, human; details: 60 min co-incubation with nonradioactive KISS1-54, 1,000-fold, p = 0.047
Protocol: (§1) Cells were seeded in 24-well plates, and 1 h before [^68Ga]KISS1-54 uptake, the cell culture medium was replaced by PBS/5% BSA. Cells were incubated at 37 °C with [^68Ga]KISS1-54 for 5–90 min or co-incubated for 60 min with [^68Ga]KISS1-54 and KISS1-54 (Sigma Aldrich, Deisenhofen, Germany). After incubation, cells were washed three times with ice-cold PBS/5% BSA and harvested. Radioactivity was measured with a gamma-counter (Wizard 2480, Perkin-Elmer, Rodgau, Germany), and cells were subsequently counted with Countess 3 (Thermo Fisher Scientific, Waltham, MA, USA). In the case of treatment with 5-Aza-2′-Deoxycytidine (Decitabine (DC)), cells were preincubated for 72 h in cell culture medium containing 5 µM Decitabine (Merck Millipore, Darmstadt, Germany). For data analysis, the determined accumulation of [^68Ga]KISS1-54 in vitro was standardized as “uptake/100,000 cells” for a better comparison. For example, the cell number differed between pretreatment with and without Decitabine, which is due to the treatment itself, making standardization necessary.

HepG2 cells = assay: In vitro cell uptake, HepG2; type: cell-based, human; details: 60 min co-incubation with nonradioactive KISS1-54, 1,000-fold, p = 0.02
Protocol: as §1

MCF-7 cells = assay: In vitro cell uptake, MCF-7; type: cell-based, human; details: 60 min co-incubation with nonradioactive KISS1-54, 1,000-fold, p = 0.004
Protocol: as §1

HCT116 cells = assay: In vitro cell uptake, HCT116; type: cell-based, human
Protocol: as §1

HeLa cells = assay: In vitro cell uptake, HeLa; type: cell-based, human; details: 60 min co-incubation with nonradioactive KISS1-54, 1,000-fold, p < 0.001
Protocol: as §1

SK-BR-3 cells = assay: In vitro cell uptake, SK-BR-3; type: cell-based, human; details: 60 min co-incubation with nonradioactive KISS1-54, 1,000-fold, p = 0.02
Protocol: as §1

MDA-MB-231 cells = assay: In vitro cell uptake, MDA-MB-231; type: cell-based, human; details: 60 min co-incubation with nonradioactive KISS1-54, 1,000-fold, not significant, p = 0.08
Protocol: as §1

LNCap tumor xenograft = type: in vivo, CD1 nu/nu mice
Protocol: (§2) The animal studies were conducted according to the principles and procedures outlined in the Guide for the Care and Use of Laboratory Animals and were in line with the Animal Welfare Act and the directive 2010/63/EU. All mice (CD1-Foxn1nu) were purchased from Charles River (Sulzfeld, Germany) and held in the animal facility of the University Hospital of Würzburg. After their arrival, they had at least a week to get used to their new environment in the animal facility.
(§3) Then, 5 × 10^6 MDA-MB-231-cells in PBS and 5 × 10^6 LNCap cells in Matrigel Matrix® without phenol-red (Corning Life Sciences B.V., Amsterdam, The Netherlands), respectively, were inoculated subcutaneously into the front flank of eight-week-old mice. After implantation, the animals were examined and monitored daily for tumor size and well-being.
(§4) After the tumor reached a size of ≥0.5 cm in diameter, micro-PET scans were started.
(§5) For tracer injection, and during the micro-PET scans, mice were kept under 1.5% isoflurane anesthesia in 100% oxygen. Body temperature was maintained at a physiological level by using heating pads throughout the whole examination period.
(§6) Then, 3.0 ± 0.9 MBq of freshly prepared [^68Ga]KISS1-54 was injected intravenously (i.v.) into the tail vein. The first animals were scanned over 80 min directly after tracer injection to find out the optimal time point for PET acquisition. […] Therefore, data acquisition for all further mice started 60 min p.i. over 20 min.
(§7) Each acquired set of data was sorted with Fourier rebinning (FORE) to a 2D dataset of sinograms, which were reconstructed with the OSEM2D reconstruction algorithm. The software AMIDE Medical Image Data Examiner (Version 1.0.4) was used to quantify the radioactivity uptake in various regions of interest (ROIs). For the semi-quantitative analysis of the PET images, spherical ROIs were defined and used. For quantification, tumor-to-muscle, tumor-to-liver, and tumor-to-lung ratios (maximal tumor uptake/mean organ uptake) were calculated.

[4] = system: MDA-MB-231 tumor xenograft; type: in vivo, CD1 nu/nu mice
Protocol: as §2, §3, §4, §5, §6, §7

in vivo = assay: in vivo; design: species or system CD1 nu/nu mice; details: mouse, iv; for tissue uptake at 1 h: CD1-Foxn1nu (CD1 nu/nu), total radioactivity
Protocol: as §2, §3, §4, §5, §6, §7

Compound: KISS1-54: KISS1 peptide with 54 amino acids; nonradioactive blocking agent (GTSLSPPPESSGSPQQPGLSAPHSRQIPAPQGAVLVQREKDLPNYNWNSFGLRF; ends and bridges not checked; UniProt Q15726 68-121, looked up)
- Ki [1]: 1.45 ± 0.1 nM

Compound: Nc1ncn([C@H]2C[C@H](O)[C@@H](CO)O2)c(=O)n1 [Decitabine, 5-Aza-2′-Deoxycytidine]
- KISS1R level by immunofluorescence (KISS1R in HCT116 cells): increase in the KISS1R level

Compound: CC[C@H](C)[C@H](NC(=O)[C@H](CCC(N)=O)NC(=O)[C@H](CCCNC(=N)N)NC(=O)[C@H](CO)NC(=O)[C@H](Cc1c[nH]cn1)NC(=O)[C@@H]1CCCN1C(=O)[C@H](C)NC(=O)[C@H](CO)NC(=O)[C@H](CC(C)C)NC(=O)CNC(=O)[C@@H]1CCCN1C(=O)[C@H](CCC(N)=O)NC(=O)[C@H](CCC(N)=O)NC(=O)[C@H](CCCNC(=N)N)NC(=O)[C@H](CO)NC(=O)CNC(=O)[C@H](CO)NC(=O)[C@H](CO)NC(=O)[C@H](CCC(=O)O)NC(=O)[C@@H]1CCCN1C(=O)[C@@H]1CCCN1C(=O)[C@@H]1CCCN1C(=O)[C@H](CO)NC(=O)[C@H](CC(C)C)NC(=O)[C@H](CO)NC(=O)[C@@H](NC(=O)CNC(=O)CCC(C(=O)O)N1CCN(CC(=O)O)CCN(CC(=O)O)CC1)[C@@H](C)O)C(=O)N1CCC[C@H]1C(=O)N[C@@H](C)C(=O)N1CCC[C@H]1C(=O)N[C@@H](CCC(N)=O)C(=O)NCC(=O)N[C@@H](C)C(=O)N[C@H](C(=O)N[C@@H](CC(C)C)C(=O)N[C@H](C(=O)N[C@@H](CCC(N)=O)C(=O)N[C@@H](CCCNC(=N)N)C(=O)N[C@@H](CCC(=O)O)C(=O)N[C@@H](CCCCN)C(=O)N[C@@H](CC(=O)O)C(=O)N[C@@H](CC(C)C)C(=O)N1CCC[C@H]1C(=O)N[C@@H](CC(N)=O)C(=O)N[C@@H](Cc1ccc(O)cc1)C(=O)N[C@@H](CC(N)=O)C(=O)N[C@@H](Cc1c[nH]c2ccccc12)C(=O)N[C@@H](CC(N)=O)C(=O)N[C@@H](CO)C(=O)N[C@@H](Cc1ccccc1)C(=O)NCC(=O)N[C@@H](CC(C)C)C(=O)N[C@@H](CCCNC(=N)N)C(=O)N[C@@H](Cc1ccccc1)C(N)=O)C(C)C)C(C)C (some centres unmarked) [[^68Ga]KISS1-54, metal not drawn]
- radiochemical purity in injection solution [2]: > 99%
- radiochemical purity after incubation in human serum, 1 h [3]: 98.0%
- uptake with KISS1-54 co-incubation, relative to control without blocking (LNCap cells): 50%
- uptake with KISS1-54 co-incubation, relative to control without blocking (HepG2 cells): 46%
- uptake with KISS1-54 co-incubation, relative to control without blocking (MCF-7 cells): 47%
- increased uptake after Decitabine treatment, with KISS1-54 co-incubation (HCT116 cells; DC-treated HCT116, 60 min co-incubation with KISS1-54): could be blocked
- uptake in Decitabine-pre-incubated HCT116 versus untreated cells (HCT116 cells; HCT116, 72 h pre-incubation with 5 µM Decitabine): significantly increased
- uptake with KISS1-54 co-incubation, relative to control without blocking (HCT116 cells; HCT116, 60 min co-incubation with nonradioactive KISS1-54, 1,000-fold, not significant, p = 0.07): 76%
- uptake with KISS1-54 co-incubation, relative to control without blocking (HeLa cells): 40%
- uptake with KISS1-54 co-incubation, relative to control without blocking (SK-BR-3 cells): 46%
- uptake with KISS1-54 co-incubation, relative to control without blocking (MDA-MB-231 cells): 65%
- tumor uptake (LNCap tumor xenograft; LNCap tumor, 60 min p.i., i.v., µ-PET, mean ± SD, n = 8): 0.9 ± 0.3 % ID/g
- tumor visualisation in PET (LNCap tumor xenograft; LNCap xenograft, n = 8, visual inspection): clearly delineated from the surrounding tissue
- reduction of tumor uptake by co-injection of KISS1-54 (LNCap tumor xenograft; LNCap-bearing mice, nonradioactive KISS1-54 in 100-fold excess): 26 ± 5%
- tumor-to-muscle ratio (LNCap tumor xenograft; LNCap, maximal tumor uptake/mean organ uptake, 60 min p.i.): 2.0 ± 0.3
- tumor-to-muscle ratio ([4]; MDA-MB-231, maximal tumor uptake/mean organ uptake, 60 min p.i.): 1.4 ± 0.4
- tumor uptake ([4]; MDA-MB-231 tumor, 60 min p.i., i.v., µ-PET, mean ± SD, n = 10): 0.7 ± 0.3 % ID/g
- tumor visualisation in PET ([4]; MDA-MB-231 tumor, n = 10, visual inspection): no significant uptake
- tissue uptake at 1 h (in vivo; tracer accumulation in brain): ~0.2 %ID/g
- tissue uptake at 1 h (in vivo; tracer accumulation in liver): ~0.8 %ID/g
- tissue uptake at 1 h (in vivo; tracer accumulation in muscle): ~0.5 %ID/g
- clearance (in vivo): rapid renal tracer clearance during the first few minutes

Compound: O=C[C@H]([18F])[C@@H](O)[C@H](O)[C@H](O)CO [[^18F]FDG, 2-[^18F]fluoro-2-deoxyglucose, reference compound]
- tumor uptake in control PET (tumor vitality) (LNCap tumor xenograft; LNCap tumor, scan the day before [^68Ga]KISS1-54): clear FDG uptake
- tumor uptake in control PET (tumor vitality) ([4]; MDA-MB-231 tumor, scan the day before [^68Ga]KISS1-54): clear FDG uptake
